Results published in ChEMBL document CHEMBL5625217, “New bysspectin A derivatives as potent inhibitors of human carboxylesterase 2A” (Eur J Med Chem, 2023).

Tested on: not listed separately
Assay: Metabolic stability in human liver microsomes assessed as half life at 10 uM preincubated for 3 mins followed by UDPGA addition and measured upto 120 mins by HPLC analysis
Type: ADME, Microsome
Settings: time < 123 min

In order of falling half-life at 10 µM:
1. CCCCCCC(=O)c1c(C)ccc2oc(-c3cc(OC)ccc3O)cc12  1.62 h
2. O=c1ccc2ccc(O)cc2o1 [UMBELLIFERONE]  0.304 h

Biological target: not listed separately
Assay: Binding affinity to human CES2A assessed as inhibition constant using fluorescein diacetate as fluorescent substrate preincubated for 3 mins followed by substrate addition and measured after 30 mins by Lineweaver-Burk plot analysis
Settings: not given

Work on `CCCCCCC(=O)c1c(C)ccc2oc(-c3cc(OC)ccc3O)cc12` yielded a Ki of 1.4 nM.

Species: Homo sapiens
Assay: Selectivity ratio of IC50 for human CES1A to IC50 for human CES2A
Settings: not given

For `CCCCCCC(=O)c1c(C)ccc2oc(-c3cc(OC)ccc3O)cc12`, the Ratio IC50 was 4540.

Tested on: not listed separately
Assay: Inhibition of human CES2A using fluorescein diacetate as fluorescent substrate preincubated for 3 mins followed by substrate addition and measured after 30 mins by fluorescence based analysis
Settings: not given

In order of rising IC50:
1. CCCCCCC(=O)c1c(C)ccc2oc(-c3cc(OC)ccc3O)cc12  2 nM
2. CCCCCCC(=O)c1cccc2oc(-c3cc(OC)ccc3O)cc12  8 nM
3. CCCCCCC(=O)c1cccc2oc(-c3cc(OCC)ccc3O)cc12  9 nM
4. CCCCCCC(=O)c1cccc2oc(-c3cc(C(F)(F)F)ccc3O)cc12  20 nM
5. CCCC(=O)c1cccc2oc(-c3cc(OC)ccc3O)cc12  21 nM
6. CCCCCCCCC(=O)c1cccc2oc(-c3cc(OC)ccc3O)cc12  22 nM
7. CCCCCCCCC(=O)c1cccc2oc(-c3c(O)cccc3C(=O)CCC)cc12  29 nM
8. CCCCCCCCC(=O)c1cccc2oc(-c3ccccc3O)cc12  32 nM
9. CCCCCCC(=O)c1cccc2oc(-c3cc(C(=O)OC)ccc3O)cc12  35 nM
10. CCCCCCCCC(=O)c1cccc2oc(-c3c(O)cccc3C(=O)CCCCCC)cc12  54 nM
11. CCCCCCCCC(=O)c1cccc2oc(-c3cc(C)ccc3O)cc12  54 nM
12. CCCCCCCCC(=O)c1cccc(O)c1-c1cc2c(C(=O)CCCCCC)cccc2o1  58 nM
13. CCCCCCCCC(=O)c1cccc(O)c1-c1cc2cc(C)ccc2o1  84 nM
14. CCCCCCCCC(=O)c1cccc(O)c1-c1cc2cc(OC)ccc2o1  100 nM
15. CCCCCCCCC(=O)c1cccc2oc(-c3ccccc3C(=O)OC)cc12  100 nM
16. CCCCCCCCC(=O)c1cccc2oc(-c3ccc(C)cc3C(=O)O)cc12  110 nM
17. CCCCCCCCC(=O)c1cccc(O)c1-c1cc2c(C(=O)CCC)cccc2o1  120 nM
18. CCCCCCCCC(=O)c1cccc2oc(-c3ccccc3C(=O)O)cc12  130 nM
19. CCCCCCCCC(=O)c1cccc2oc(-c3ccc(OC)cc3O)cc12  140 nM
20. CCCCCCCCC(=O)c1cccc(O)c1-c1cc2ccc(OC)cc2o1  190 nM
21. CCCCCCC(=O)c1cccc2oc(-c3cc(C(=O)O)ccc3O)cc12  200 nM
22. CCCCCCCCC(=O)c1cccc(O)c1-c1cc2ccccc2o1  230 nM
23. CCCCCCC(=O)c1cccc2oc(-c3ccccc3C(=O)OC)cc12  250 nM
24. CCCCCCC(=O)c1cccc2oc(-c3ccc(C)cc3C(=O)OC)cc12  300 nM
25. CCCCCCCCC(=O)c1cccc2oc(-c3ccc(C)cc3C(=O)OC)cc12  310 nM
26. CN(C)C(=O)C(CCN1CCC(O)(c2ccc(Cl)cc2)CC1)(c1ccccc1)c1ccccc1 [LOPERAMIDE]  350 nM
27. CCCCCCC(=O)c1cccc2oc(-c3ccccc3C(=O)O)cc12  360 nM
28. CCCCCCC(=O)c1cccc2oc(-c3ccc(C)cc3C(=O)O)cc12  490 nM
29. CCCCCCCCC(=O)c1cccc(OC)c1-c1cc2c(C(=O)CCCCCCCC)cccc2o1  600 nM
30. CCCCCCCCC(=O)c1cccc(OC(C)=O)c1-c1cc2c(C(=O)CCCCCCCC)cccc2o1  690 nM
31. CCCCCCCCC(=O)c1cccc(O)c1-c1cc2c(C(=O)CCCCCCCC)cccc2o1  1090 nM
32. CCCCCCCCC(=O)c1cccc2oc(-c3ccccc3)cc12  5410 nM

Tested on: not listed separately
Assay: Inhibition of intracellular CES2A in human HepG2 cells assessed as reduction in NCEN hydrolysis incubated for 1 hr
Type: cell-based
Settings: Homo sapiens, HepG2, 1 h; read-out: IC50

In the case of `CCCCCCC(=O)c1c(C)ccc2oc(-c3cc(OC)ccc3O)cc12`, the IC50 is reported as 52 nM.

Same assay, conditions: hepg2

For `CCCCCCC(=O)c1c(C)ccc2oc(-c3cc(OC)ccc3O)cc12`, the IC50 was “Dose-Dependent Effect”.

Tested on: not listed separately
Assay: Inhibition of human CES1A using NLMe as substrate preincubated for 3 mins followed by substrate addition and measured after 20 mins by Spectra max microplate reader analysis
Settings: not given

In order of falling IC50:
1. CCCCCCC(=O)c1c(C)ccc2oc(-c3cc(OC)ccc3O)cc12  7260 nM
2. CCCCCCCCC(=O)c1cccc2oc(-c3cc(OC)ccc3O)cc12  2610 nM

Tested on: HepG2
Assay: Cytotoxicity against human HepG2 cells assessed as reduction in cell viability at 10 uM measured after 24 hrs by CCK-8 method
Type: toxicity, cell-based
Settings: hepg2, 24 h

For `CCCCCCC(=O)c1c(C)ccc2oc(-c3cc(OC)ccc3O)cc12`, the Activity was “Non-Toxic”.

Tested on: not listed separately
Assay: Metabolic stability in human liver microsomes assessed as half life at 10 uM preincubated for 3 mins followed by NADPH addition and measured upto 120 mins by HPLC analysis
Type: ADME, Microsome
Settings: time < 123 min

In order of rising half-life at 10 µM:
1. C[C@]12CC[C@H]3[C@@H](CCC4=CC(=O)CC[C@@]43C)[C@@H]1CC[C@@H]2O [TESTOSTERONE]  0.46 h
2. CCCCCCC(=O)c1c(C)ccc2oc(-c3cc(OC)ccc3O)cc12  2.1 h
